From US20050124021A1 (priority 2000, published 2005)
Entries after “also recorded” stand apart in the source; their conditions may differ.

Key:
[1] = biological target: recombinant MshB (Rv1170) (Mycobacterium tuberculosis, UniProt P9WJN3); assay type: biochemical, M. tuberculosis
M. smegmatis mutant 49 = assay type: cell-based
[2] = biological target: T1, M. tuberculosis MshB (Rv1170) (Mycobacterium tuberculosis, UniProt P9WJN3); assay type: biochemical; conditions: for Deacetylase Specific Activity: pH 7.4
[3] = test system: M. smegmatis strain 49::H37Rv A18; conditions: read-out: H2O2 IC50; cited from earlier work
M. smegmatis strain 49 [4] = test system: M. smegmatis strain 49
M. smegmatis mc^2155 [5] = conditions: read-out: H2O2 IC50
M. smegmatis strain 49 [6] = conditions: read-out: H2O2 IC50; cited from earlier work
His-tagged MshB [7] = biological target: T2, His-tagged MshB (Mycobacterium tuberculosis, UniProt P9WJN3); assay type: biochemical, M. tuberculosis
[8] = biological target: T1, M. tuberculosis MshB (Rv1170); assay type: biochemical
His-tagged MshB [9] = biological target: T2, His-tagged MshB; assay type: biochemical, M. tuberculosis; remark: listed apart in the source
M. smegmatis mutant TN3 = assay type: cell-based
M. smegmatis mc^2155 [10] = assay type: cell-based
[11] = test system: M. smegmatis chemical mutant 164; assay type: cell-based

T1 sequence (P9WJN3 whole entry, looked up): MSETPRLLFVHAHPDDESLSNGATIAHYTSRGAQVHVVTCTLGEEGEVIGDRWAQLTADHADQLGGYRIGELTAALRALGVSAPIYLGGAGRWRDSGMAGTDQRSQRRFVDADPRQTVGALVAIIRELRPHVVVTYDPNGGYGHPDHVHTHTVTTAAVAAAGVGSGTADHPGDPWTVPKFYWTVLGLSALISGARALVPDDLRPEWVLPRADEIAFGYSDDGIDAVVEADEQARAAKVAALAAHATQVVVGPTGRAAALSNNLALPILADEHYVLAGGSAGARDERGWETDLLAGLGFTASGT
T2 sequence (P9WJN3 whole entry, looked up): as above
recombinant MshB (Rv1170), sequence (P9WJN3 whole entry, looked up): as above

**Q.** For `c1cnc2c(c1)ccc1cccnc12` [1,10-phenanthroline], which “Inhibition of the deacetylase reaction” value [1] is on record?
**A.** substantially inhibited; also recorded: completely inhibited

**Q.** For `CC(=O)N[C@H]1C(O)O[C@H](CO)[C@@H](O)[C@@H]1O` (stereo partly shown) [GlcNAc, N-acetylglucosamine], which “MSH found in cells” value (M. smegmatis mutant 49) is on record?
**A.** No significant MSH

**Q.** What about the “Fold less active than GlcNAc-Ins as deacetylase substrate” value [2] of the same molecule?
**A.** 44 fold

**Q.** What about the “Relative Rate (deacetylase reaction)” value [2] of the same molecule?
**A.** 0.023

**Q.** What about the “Deacetylase Specific Activity” value [2] of the same molecule?
**A.** 1.6 ± 1 nmol/min/mg

**Q.** For `OO` [H2O2, hydrogen peroxide], which IC50 [3] is on record?
**A.** 1800 µM

**Q.** And the “Fold more sensitive to H2O2 than the parent strain” value (M. smegmatis strain TN3)?
**A.** > 20 fold

**Q.** And the IC50 (M. smegmatis strain TN3; read-out: H2O2 IC50)?
**A.** 500 µM

**Q.** And the “Fold more sensitive to H2O2 than the parent strain” value (M. smegmatis strain 49 [4])?
**A.** 12 fold

**Q.** And the IC50 (M. smegmatis mc^2155 [5])?
**A.** 12000 µM

**Q.** And the IC50 (M. smegmatis strain 49 [6])?
**A.** 1000 µM

**Q.** What about the “Sensitivity to peroxide versus the parent strain” value (M. smegmatis strain I64) of the same molecule?
**A.** three-fold more sensitive

**Q.** And the IC50 (M. smegmatis strain I64; read-out: H2O2 IC50)?
**A.** 3500 µM

**Q.** What does the source list for `CC(=O)N[C@@H](CS)C(=O)N[C@H]1[C@@H](OC2[C@H](O)[C@H](O)C(O)[C@H](O)[C@H]2O)O[C@H](CO)[C@@H](O)[C@@H]1O` (stereo partly drawn) [MSH, 1-D-myo-inosityl-2-(N-acetylcysteinyl)amido-2-deoxy-α-D-glucopyranoside]?
**A.** Inhibition of the deacetylase activity (His-tagged MshB [7]): effective inhibitor; Relative Rate (deacetylase reaction) [2]: <0.00036; Substrate quality for the deacetylase activity [2]: not substrates; Deacetylase Specific Activity [2]: <0.025 ± 0.012 nmol/min/mg; Relative Rate (amidase reaction) [8]: 0.0043; Amidase Specific Activity ([8]; pH 7.4): 0.3 ± 0.1 nmol/min/mg; Concentration that completely inhibits the amidase activity (His-tagged MshB [9]): over 1 mM; Inhibition of the amidase activity (His-tagged MshB [9]): effective inhibitor

**Q.** Which “MSH found in cells” value (M. smegmatis mutant 49) does the source give for `N[C@H]1C(O)O[C@H](CO)[C@@H](O)[C@@H]1O` (stereo partly shown) [glucosamine] here?
**A.** No significant MSH

**Q.** For `N[C@@H](CCC(=O)N[C@@H](CS)C(=O)NCC(=O)O)C(=O)O` [glutathione], which “Inhibition of the deacetylase activity” value (His-tagged MshB [7]) is on record?
**A.** lack of inhibition

**Q.** And the “Inhibition of the amidase activity” value (His-tagged MshB [9])?
**A.** lack of inhibition

**Q.** With `O[C@H]1[C@H](O)[C@@H](O)[C@H](O)[C@@H](O)[C@H]1O` [inositol] as the molecule, how does the “MSH found in cells” value (M. smegmatis mutant 49) read?
**A.** No significant MSH

**Q.** With superoxide as the molecule, how does the Killed by superoxide (M. smegmatis mutant TN3) read?
**A.** > 90%

**Q.** And the “Killing by superoxide” value (M. smegmatis mc^2155 [10])?
**A.** no significant killing

**Q.** What about the “Killing by superoxide” value [11] of the same molecule?
**A.** intermediate level of killing
